In patent publication US8053197B2, “Methods for detecting and treating autoimmune disorders” (Oregon Health & Science University, priority 2004, dated 2011):

Key:
[1] = tested on: CD4+CD25− responder cells; assay: Suppressive activity of CD4+CD25+ T cells from treated mice on CD4+CD25− responder cells (I50); assay type: in vivo, C57BL/6 mice
Description: FIG. 7 illustrates the suppressive activity of CD4+CD25+ T cells recovered from placebo, E2-treated and pregnant mice was measured by their ability to suppress the growth of CD4+CD25−responder cells. Varying numbers of sorted CD4+CD25+ Treg cells from placebo-treated, E2-treated, and pregnant mice were co-cultured in triplicate for 3 days without (0:1 ratio) or with a constant number (5×10^4) of CD4+CD25−responder cells and APC (10^5) from naïve donors, and 0.5 μg/ml anti-CD3 mAb. Responder cells were also cultured alone (1:0 ratio). Proliferation was monitored by uptake of [^3H]-thymidine (1 μCi/well) for the last 12 h of culture. Data are representative of three independent experiments. *I50 values (% CD4+CD25+ cells that could inhibit the proliferation of anti-CD3-activated CD4+CD25−responder cells by 50%) represent the average of two or more independent experiments.
Female C57BL/6 mice were pretreated with 17β-estradiol (E2) or placebo for 7 days prior to challenge with MOG-35-55 peptide/CFA/PM to induce EAE. At the peak of EAE in the placebo group (day 15 after induction), cells were harvested from both the placebo-treated mice (score=4.5-5) and E2-treated mice (score=0). Cell mixtures were combined within each treatment group. […]

[2] = tested on: Foxp3; assay: E2 induction of Foxp3 in vitro in purified CD4+CD25− T cells (real-time RT-PCR); assay type: cell-based, mice
Description: FIG. 1 is a graph illustrating real-time RT-PCR analysis of Foxp3 expression in vitro in purified (>99%) CD4+CD25− T cells. E2 in combination with TCR stimulation by anti-CD3 antibody for 24 hours induced Foxp3 mRNA approximately 3-fold over levels in untreated cells or in anti-CD3 stimulated cells in the absence of E2. Foxp3 levels are shown relative to the housekeeping gene L32. Error bars are standard deviation of triplicate samples. One representative result of three is shown.
The capacity of E2 to induce Foxp3 expression in vitro in purified (>99%) CD4+CD25− T cells was tested. […]
For real-time RT-PCR analysis, total RNA was prepared using the Total RNeasy kit (Qiagen, Germantown, Md.) and cDNA was prepared using random hexamer primers (Invitrogen, Grand Island, N.Y.). Foxp3 message expression was quantified using the ABI 7000 Real-Time PCR System (Applied Biosystems, Foster City, Calif.). Amplification was performed in a total volume of 25 μl for 40 cycles and products were detected using SYBR Green I dye (Molecular Probes, Eugene, Oreg.). Samples were run in triplicate and relative expression level was determined by normalization to L32 with results presented as relative expression (RE) units. […] FoxP3 was detected with rabbit-anti-FoxP3 antiserum and standard chemiluminescence. […]

`C[C@]12CC[C@@H]3c4ccc(O)cc4CC[C@H]3[C@@H]1CC[C@@H]2O` [E2, 17β-estradiol] was tested, and the “I50 of Treg suppressive activity” value ([1]; E2-protected mice challenged for EAE, day 15, control mice with EAE 30%) was 2.5%, the “average I50 value for CD4+CD25+ Treg cells” value ([1]; Treg from E2-treated mice without EAE, naïve mice 22.4±[…], n=3 experiments) was 14.7±0.3% and the “fraction of CD25+ cells over TCR stimulation alone” value [2] was “increased”. For the same molecule, the “Foxp3 mRNA induction over levels in untreated cells” value ([2]; E2 in combination with anti-CD3 antibody for 24 hours, relative to L32) was “approximately 3 fold”.
